Measured values: patent US8952158B2, “Tricyclic compound and use thereof” (Ono Pharmaceutical Co., Ltd., priority 2004, dated 2015)
pKi: −log10 of the molar value.

Columns and labels:
Wistar male rat [1] = test: Competition experiment of MBR ligand (psychological stressor, number of dejection); assay type: in vivo
Method: Using a Wistar male rat, psychological stressor similar to that in Biological Example 2 described above was loaded. Each treatment group was set as follows: a medium was intravenously administered (treatment group 1), the compound of the present invention (the compound of Example 38) was intravenously administered at a dose of 0.1 mg/kg (treatment group 2), an MBR selective agonist (CB34) was intravenously administered at a dose of 1 mg/kg (treatment group 3), or after the compound of the present invention (the compound of Example 38) was intravenously administered at a dose of 0.1 mg/kg, an MBR selective agonist was intravenously administered at a dose of 0.1 mg/kg (treatment group 4). In each group, stressor loading was initiated 10 minutes after administration, and the number of dejection was counted one hour later (10 animals in each group).

MBR = target: T1, MBR (Rattus norvegicus, UniProt P16257); test: Receptor binding experiment ([3H]PK11195 competition); conditions: [3H]PK11195, rat membrana cerebri specimen; Cheng and Prusoff
T1 construct: A Wistar male rat was decapitated and the whole brain was extirpated, and then the cerebellum was removed; from tissue; host or cells: Wistar male rat brain (cerebellum removed), crude membrane preparation
Method: Affinity of the compound of the present invention for MBR was measured using a rat membrana cerebri specimen. The measuring method of the present invention has improved measurement accuracy and measurement sensitivity so as to evaluate the compound of the present invention as follows. A Wistar male rat was decapitated and the whole brain was extirpated, and then the cerebellum was removed. For the rat membrana cerebri specimen used in the binding experiment, 50 mmol/L of an ice-cold Iris-hydrochloric acid buffer (pH 7.4) was added and it was homogenized and centrifuged. After the resulting deposit was washed, it was resuspended to be prepared to about 1 mg/ml. The binding experiment was conducted using [^3H]PK11195 as an MBR selective ligand.
In the case of calculating the all binding amount in a saturation experiment, the membrane specimen, [^3H]PK11195 at several concentrations, dimethyl sulfoxide (DMSO) in a final concentration of 0.5 vol %, and 50 mmol/L of a tris-hydrochloric acid buffer (pH 7.4) were mixed (all amount 200 μl), followed by incubation at room temperature for one hour. In the case of calculating the nonspecific binding amount, […] in a final concentration of 20 ptrnol/L was added instead of DMSO, followed by incubation for one hour. […] After the filter was dried, radioactivity was measured by a liquid scintillation counter. […]

[2] = Oral absorbability of rat; assay type: in vivo; conditions: plasma; fasted SD male rat; oral 1 mg/kg vs intravenous 0.1 mg/kg; from AUC; read-out: Bioavailability (B.A.)
Method: Using a fasted SD male rat (CHARLES RIVER LABORATORIES JAPAN, INC.), under the condition that the compound of the present invention (the compound of Example 38) was solubilized, the plasma concentration after administration in the tail vein at a dose of 0.1 mg/kg and the plasma concentration after gastric gavage administration at a dose of 1 mg/kg were measured. The blood was collected from a rat jugular vein under an unanesthetized condition 5, 15, and 30 minutes, and 1, 2, 3, 4, 6, and 8 hours after intravenous administration, and 15 and 30 minutes, and 1, 2, 3, 4, 6, and 8 hours after oral administration. Then the blood was centrifuged at 3000 rpm for 10 minutes and the supernatant was collected as plasma. The concentration of the compound in plasma was measured with LC/MS/MS (1100 HPLC System (Agilent Co. Ltd.), API 4000 (MDS SCIEX Ltd.)). From the obtained plasma concentration, an area under the curve (AUC, ngh/ml) and a maximum plasma concentration (Cmax, ng/mL) were calculated. In addition, Bioavailability (B.A.) of the compound of the present invention was calculated from AUC in oral administration and AUC in intravenous administration.

Wistar male rat [3] = test: Study on antistress effect (1): psychological stressor, number of dejection; assay type: in vivo; conditions: 30 min before stressor, counted one hour later
Method: Psychological stressor was loaded using a Wistar male rat (Brain Res. 1994; 641: pp. 21-28). Water was accumulated by the depth of about 10 cm in a container having a platform in the center. Thirty-minutes after a medium or the compound of the present invention (the compound of Example 38) was intravenously administered at a dose of 0.01 mg/kg or orally administered at a dose of 1 mg/kg, stressor loading was initiated, and one hour later, the number of dejection was counted (10 animals in each group). The rat administered the compound of the present invention and the rat to which the stress or was not loaded had little dejection after one hour.

[4] = system: male Sprague-Dawley (SD) rat; test: Study on antistress effect (2): physical (restraint) stressor, number of dejection; assay type: in vivo; conditions: oral 1 mg/kg, 30 min before restraint; 60 minutes after initiation of stressor loading
Method: Physical stressor was loaded using a male Sprague-Dawley (SD) rat (CHARLES RIVER LABORATORIES JAPAN, INC., 7 week old at being used) (Gastroenterology 1988; 94: pp. 611-622; Jpn. J. Phrmacol. 1998; 77: pp. 211-217). Thirty minutes after a medium (0.5% Tween 80 physiological saline) or the compound of the present invention (the compound of Example 38) was orally administered at a dose of 1 mg/kg, stressor loading was initiated by restraining both anterior branches of the rat with a binding band (Marvel Ltd.). Evaluation was performed by measuring the number of dejection 30 and 60 minutes after the initiation of stressor loading (15 animals in each group).

Wistar male rat [5] = test: Inhibitory action on abdominal pain in RCS loading model; assay type: in vivo; conditions: oral 1 mg/kg twice a day, RCS 4 days, balloon 0-1.2 mL, versus medium treatment group (FIG. 1)
Excerpt: A Wistar male rat (6 week old at being received) was anesthetized with pentobarbital sodium (Kyoritsu Seiyaku Corporation), its abdomen was incised and the abdominal muscle was exposed, and then Force Transducer (F-12IS-SL (STAR MEDICAL Ltd.)) was fitted. Penicillin was intramuscular administered after the operation, and a recuperative period of 5 days was set.
During from AM 9:00 to PM 5:00 on a 1st day of the initiation of stress loading, the feeding environment temperature was alternately changed to 24° C. and 2° C. in an hour interval, and during from PM 5:00 to AM 9:00 in the next morning, the rat was fed under the environment of 2° C. […]
After RCS was loaded for 4 days, abdominal pain evaluation was performed on a 5th day (10 to 12 animals in each group). […] Contraction of abdominal muscle for extension stimulation in each balloon liquid amount was recorded using the Chart software (Chart v5.0.2. (ADInstruments Inc.)) by passing the signal from the pressure transducer amplified by the amplifier (Windo Gragf (GOULD Inc.)) through the data collection system (PowerLab (ADInstruments Inc.)). During 5 minutes in which balloon extension stimulation was loaded, the number of signals from the pressure transducer in 3 minutes was counted, and the obtained number was regarded as the number of abdominal muscle contraction and set as the index of abdominal pain.

pKi (MBR) | bioavailability [2] [%] | Structure (SMILES) | the number of dejection: mean number (Wistar male rat [1]; treatment group 3: intravenous 1 mg/kg, stressor 10 min after administration, counted one hour later) | the number of dejection: mean number (Wistar male rat [1]; treatment group 2: intravenous 0.1 mg/kg, stressor 10 min after administration, counted one hour later) | the number of dejection: mean number (Wistar male rat [1]; treatment group 4: Example 38 intravenous 0.1 mg/kg, then MBR selective agonist (CB34) intravenous 0.1 mg/kg) | the number of dejection: mean number (Wistar male rat [3]; intravenous administration 0.01 mg/kg) | the number of dejection: mean number (Wistar male rat [3]; oral administration 1 mg/kg) | the number of dejection: mean number [4] | number of abdominal muscle contraction (index of abdominal pain) (Wistar male rat [5])
 |  | CCCN(CCC)C(=O)c1c(-c2ccc(Cl)cc2)nc2cc(Cl)cc(Cl)n12 [CB34, 5,7-dichloro-2-(4-chlorophenyl)-3-dipropylaminocarbonylimidazo[1,2-a]pyridine, reference compound] | 9.5 |  |  |  |  |  | 
10.10 | 86.9 | COc1cc(Cl)ccc1[C@H]1c2[nH]c3cccc(F)c3c2C2(CC2)CN1C(C)=O [Example 38, (1S)-2-acetyl-1-(4-chloro-2-methoxyphenyl)-5-fluoro-1,2,3,9-tetrahydrospiro[β-carboline-4,1′-cyclopropane]] |  | 7.3 | 10.1 | 8.2 | 6.2 | 7.5 | significantly inhibited
